Data as given in ChEMBL document CHEMBL3885881, “DrugMatrix”.

Species on record: Rattus norvegicus
Test: DrugMatrix - Regimen: Daily Repeat
Type: toxicity, organism-based, Sprague-Dawley
Parameters: regimen Daily Repeat, gender Male, age 6-8 weeks
Settings: in vivo, ip, route intraperitoneal, vehicle 100 % SALINE; for ALANINE AMINOTRANSFERASE / ALBUMIN / ALKALINE PHOSPHATASE / ASPARTATE AMINOTRANSFERASE / BLOOD UREA NITROGEN / CARBON DIOXIDE / CHLORIDE / CHOLESTEROL / CREATINE PHOSPHOKINASE / CREATININE / GLUCOSE / LACTATE DEHYDROGENASE / LIPASE / PHOSPHORUS / POTASSIUM / SODIUM / TOTAL BILIRUBIN / TOTAL PROTEIN / URIC ACID: tissue Plasma; for ABSOLUTE BASOPHIL / ABSOLUTE EOSINOPHIL / ABSOLUTE LYMPHOCYTE / ABSOLUTE MONOCYTE / ABSOLUTE SEGMENTED NEUTROPHIL / BASOPHIL / EOSINOPHIL / ERYTHROCYTE COUNT / HEMATOCRIT / HEMOGLOBIN / LEUKOCYTE COUNT / LYMPHOCYTE / MEAN CORPUSCULAR HEMOGLOBIN / MEAN CORPUSCULAR HEMOGLOBIN CONCENTRATION / MEAN CORPUSCULAR VOLUME / MONOCYTE / NEUTROPHIL / NUCLEATED RED BLOOD CELLS / PLATELET COUNT: tissue Blood
[1] = 16 mg/kg, […], dose level Low, time 7 day
[2] = 25 mg/kg, 72 h, dose level M1, time 3 day
[3] = 25 mg/kg, […], dose level M1, time 7 day
[4] = 32 mg/kg, 72 h, dose level High, time 3 day
[5] = 32 mg/kg, 120 h, dose level High, time 5 day

## C=CCO [ALLYL ALCOHOL]
[1]
  ALANINE AMINOTRANSFERASE: 80.83 u/L
  ALBUMIN: 4.13 G/DL
  ALKALINE PHOSPHATASE: 183 u/L
  ASPARTATE AMINOTRANSFERASE: 104.33 u/L
  BLOOD UREA NITROGEN: 16.67 mg/dL
  CARBON DIOXIDE: 32.17 mmol/L
  CHLORIDE: 100.67 MEQ/L
  CHOLESTEROL: 73.5 mg/dL
  CREATINE PHOSPHOKINASE: 256 u/L
  CREATININE: 0.27 mg/dL
  GLUCOSE: 141 mg/dL
  LACTATE DEHYDROGENASE: 96.17 u/L
  LIPASE: 10.5 u/L
  PHOSPHORUS: 10.28 mg/dL
  POTASSIUM: 5.47 MEQ/L
  SODIUM: 142.65 MEQ/L
  TOTAL BILIRUBIN: 0.12 mg/dL
  TOTAL PROTEIN: 6.32 G/DL
  URIC ACID: 0.65 mg/dL
[2]
  ABSOLUTE BASOPHIL: 0 CELLS/uL
  ABSOLUTE EOSINOPHIL: 43.33 CELLS/uL
  ABSOLUTE LYMPHOCYTE: 12346.17 CELLS/uL
  ABSOLUTE MONOCYTE: 299.67 CELLS/uL
  ABSOLUTE SEGMENTED NEUTROPHIL: 1244.17 CELLS/uL
  BASOPHIL: 0%
  EOSINOPHIL: 0.33%
  ERYTHROCYTE COUNT: 5.36 x10E6/uL
  HEMATOCRIT: 34.17%
  HEMOGLOBIN: 13.52 G/DL
  LEUKOCYTE COUNT: 13.93 x10E3/uL
  LYMPHOCYTE: 88.17%
  MEAN CORPUSCULAR HEMOGLOBIN: 25.25 pg
  MEAN CORPUSCULAR HEMOGLOBIN CONCENTRATION: 39.62 G/DL
  MEAN CORPUSCULAR VOLUME: 63.8 fL
  MONOCYTE: 2.17%
  NEUTROPHIL: 9.33%
  NUCLEATED RED BLOOD CELLS: 0 /100WBC
  PLATELET COUNT: 1124.67 x10E3/uL
  ALANINE AMINOTRANSFERASE: 46.67 u/L
  ALBUMIN: 4 G/DL
  ALKALINE PHOSPHATASE: 230.83 u/L
  ASPARTATE AMINOTRANSFERASE: 67.33 u/L
  BLOOD UREA NITROGEN: 11.17 mg/dL
  CARBON DIOXIDE: 32.67 mmol/L
  CHLORIDE: 102 MEQ/L
  CHOLESTEROL: 77.17 mg/dL
  CREATINE PHOSPHOKINASE: 229.5 u/L
  CREATININE: 0.39 mg/dL
  GLUCOSE: 137 mg/dL
  LACTATE DEHYDROGENASE: 101.67 u/L
  LIPASE: 8.33 u/L
  PHOSPHORUS: 9.72 mg/dL
  POTASSIUM: 5.84 MEQ/L
  SODIUM: 141.88 MEQ/L
  TOTAL BILIRUBIN: 0.17 mg/dL
  TOTAL PROTEIN: 6.07 G/DL
  URIC ACID: 1.12 mg/dL
[3]
  ABSOLUTE BASOPHIL: 0 CELLS/uL
  ABSOLUTE EOSINOPHIL: 65.67 CELLS/uL
  ABSOLUTE LYMPHOCYTE: 7275.5 CELLS/uL
  ABSOLUTE MONOCYTE: 150.67 CELLS/uL
  ABSOLUTE SEGMENTED NEUTROPHIL: 874.83 CELLS/uL
  BASOPHIL: 0%
  EOSINOPHIL: 0.67%
  ERYTHROCYTE COUNT: 5.49 x10E6/uL
  HEMATOCRIT: 34.07%
  HEMOGLOBIN: 13.33 G/DL
  LEUKOCYTE COUNT: 8.37 x10E3/uL
  LYMPHOCYTE: 87.67%
  MEAN CORPUSCULAR HEMOGLOBIN: 24.3 pg
  MEAN CORPUSCULAR HEMOGLOBIN CONCENTRATION: 39.13 G/DL
  MEAN CORPUSCULAR VOLUME: 62.12 fL
  MONOCYTE: 1.83%
  NEUTROPHIL: 9.83%
  NUCLEATED RED BLOOD CELLS: 0 /100WBC
  PLATELET COUNT: 1389.83 x10E3/uL
  ALANINE AMINOTRANSFERASE: 80.83 u/L
  ALBUMIN: 4.2 G/DL
  ALKALINE PHOSPHATASE: 232.83 u/L
  ASPARTATE AMINOTRANSFERASE: 88.17 u/L
  BLOOD UREA NITROGEN: 15 mg/dL
  CARBON DIOXIDE: 31.33 mmol/L
  CHLORIDE: 101 MEQ/L
  CHOLESTEROL: 66.5 mg/dL
  CREATINE PHOSPHOKINASE: 274.5 u/L
  CREATININE: 0.28 mg/dL
  GLUCOSE: 136.67 mg/dL
  LACTATE DEHYDROGENASE: 97 u/L
  LIPASE: 10.5 u/L
  PHOSPHORUS: 9.85 mg/dL
  POTASSIUM: 5.63 MEQ/L
  SODIUM: 144.45 MEQ/L
  TOTAL BILIRUBIN: 0.1 mg/dL
  TOTAL PROTEIN: 6.35 G/DL
  URIC ACID: 0.85 mg/dL
[4]
  ABSOLUTE BASOPHIL: 0 CELLS/uL
  ABSOLUTE EOSINOPHIL: 16 CELLS/uL
  ABSOLUTE LYMPHOCYTE: 7549.2 CELLS/uL
  ABSOLUTE MONOCYTE: 147.6 CELLS/uL
  ABSOLUTE SEGMENTED NEUTROPHIL: 1267.2 CELLS/uL
  BASOPHIL: 0%
  EOSINOPHIL: 0.2%
  ERYTHROCYTE COUNT: 5.74 x10E6/uL
  HEMATOCRIT: 34.96%
  HEMOGLOBIN: 13.16 G/DL
  LEUKOCYTE COUNT: 8.98 x10E3/uL
  LYMPHOCYTE: 84%
  MEAN CORPUSCULAR HEMOGLOBIN: 22.98 pg
  MEAN CORPUSCULAR HEMOGLOBIN CONCENTRATION: 37.66 G/DL
  MEAN CORPUSCULAR VOLUME: 61.06 fL
  MONOCYTE: 1.6%
  NEUTROPHIL: 14.2%
  NUCLEATED RED BLOOD CELLS: 0 /100WBC
  PLATELET COUNT: 945 x10E3/uL
  ALANINE AMINOTRANSFERASE: 456.4 u/L
  ALBUMIN: 3.86 G/DL
  ALKALINE PHOSPHATASE: 444.6 u/L
  ASPARTATE AMINOTRANSFERASE: 939.2 u/L
  BLOOD UREA NITROGEN: 15.6 mg/dL
  CARBON DIOXIDE: 28.24 mmol/L
  CHLORIDE: 98.33 MEQ/L
  CHOLESTEROL: 70.6 mg/dL
  CREATINE PHOSPHOKINASE: 527.8 u/L
  CREATININE: 0.2 mg/dL
  GLUCOSE: 138.2 mg/dL
  LACTATE DEHYDROGENASE: 186.6 u/L
  LIPASE: 9.25 u/L
  PHOSPHORUS: 9.34 mg/dL
  POTASSIUM: 5.07 MEQ/L
  SODIUM: 143.03 MEQ/L
  TOTAL BILIRUBIN: 0.2 mg/dL
  TOTAL PROTEIN: 5.94 G/DL
  URIC ACID: 0.58 mg/dL
[5]
  ABSOLUTE BASOPHIL: 0 CELLS/uL
  ABSOLUTE EOSINOPHIL: 0 CELLS/uL
  ABSOLUTE LYMPHOCYTE: 8954.4 CELLS/uL
  ABSOLUTE MONOCYTE: 236 CELLS/uL
  ABSOLUTE SEGMENTED NEUTROPHIL: 1769.6 CELLS/uL
  BASOPHIL: 0%
  EOSINOPHIL: 0%
  ERYTHROCYTE COUNT: 5.51 x10E6/uL
  HEMATOCRIT: 33.82%
  HEMOGLOBIN: 12.86 G/DL
  LEUKOCYTE COUNT: 10.96 x10E3/uL
  LYMPHOCYTE: 81.4%
  MEAN CORPUSCULAR HEMOGLOBIN: 23.36 pg
  MEAN CORPUSCULAR HEMOGLOBIN CONCENTRATION: 38.08 G/DL
  MEAN CORPUSCULAR VOLUME: 61.42 fL
  MONOCYTE: 2.2%
  NEUTROPHIL: 16.4%
  NUCLEATED RED BLOOD CELLS: 0 /100WBC
  PLATELET COUNT: 1673 x10E3/uL
  ALANINE AMINOTRANSFERASE: 57.8 u/L
  ALBUMIN: 4.32 G/DL
  ALKALINE PHOSPHATASE: 372.6 u/L
  ASPARTATE AMINOTRANSFERASE: 80.8 u/L
  BLOOD UREA NITROGEN: 12.6 mg/dL
  CARBON DIOXIDE: 32.4 mmol/L
  CHLORIDE: 102 MEQ/L
  CHOLESTEROL: 79.8 mg/dL
  CREATINE PHOSPHOKINASE: 211.6 u/L
  CREATININE: 0.16 mg/dL
  GLUCOSE: 162.6 mg/dL
  LACTATE DEHYDROGENASE: 154.6 u/L
  LIPASE: 9.6 u/L
  PHOSPHORUS: 9.92 mg/dL
  POTASSIUM: 5.73 MEQ/L
  SODIUM: 143.6 MEQ/L
  TOTAL BILIRUBIN: 0.22 mg/dL
  TOTAL PROTEIN: 6.56 G/DL
  URIC ACID: 0.94 mg/dL
